Common to all, as to assay: Xenograft anti-tumor efficacy
Experiment [1] deals with BXF1228 patient-derived bladder cancer model. It counts as in vivo, mice. The settings on record: final tumor weight, TPP-2090 10 mg/kg twice weekly for 4 weeks.
Experiment [2] has as its system SCaBER xenograft (bladder cancer), NMRI nude mice. In kind it is in vivo. The settings on record: final tumor weight, TPP-2090 10 mg/kg twice weekly for 4 weeks.
The subject of experiment [3] is Ku-19-19 xenograft (bladder cancer). It counts as in vivo, mice. The settings on record: final tumor weight, TPP-2090 10 mg/kg twice weekly for 4 weeks. How it is done:
(§1) After tumor growth to a size of approximately 40 mm^2 mice were randomized into control and treatment groups with a respective group size of n=8-10. Mice were treated with various doses of anti-TWEAKR antibodies diluted in PBS by intravenous injection (i.v.) into the tail vein with a twice per week schedule (q4dx3: applications twice per week, three applications in total; q4dx8: applications twice per week, eight applications in total). Combination therapy partners such as Regorafenib (10 mg/kg daily, per os) and the PI3K-inhibitor 1 (10 mg/kg, BID, 2d on, 5d off (applications twice daily on two consecutive days, followed by five days without treatment), i.v.) were diluted in their respective formulations whereas the standard of care therapies Irinotecan (5 mg/kg, 4d on, 3d off (applications once daily on four consecutive days followed by three days without treatment) i.v.) and Paclitaxel (16 mg/kg, q7dx4 (applications once per week, four applications in total), i.v.) were diluted in 0.9% NaCl. Animals injected with PBS served as the control (vehicle) group. The applied volume of the compounds was 5 ml/kg body weight per mouse.
(§2) Tumor growth was monitored 2-3 times per week by caliper measurement (length×width in mm) as well as body weight (in g). […]

Experiment [4] relates to BXF1352 patient-derived bladder cancer model. In kind it is in vivo, mice. The settings on record: final tumor weight, TPP-2090 10 mg/kg twice weekly for 4 weeks. How it is done: as §1, §2
Experiment [5] relates to Co5896 patient-derived colorectal cancer model. It counts as in vivo, mice. Particulars: tumor weight, TPP-2090 10 mg/kg twice weekly for 4 weeks. How it is done:
as §1
(§3) Tumor growth was monitored 2-3 times per week by caliper measurement (length×width in mm) as well as body weight (in g). At the end of study tumors were dissected, weighted and used for the calculation of tumor-to-control (T/C) ratios (mean tumor weight of treated animals divided by mean tumor weight of control/vehicle animals). […] 2×10^6 tumor cells in 100% Matrigel were s.c. inoculated in female nude mice. After 7d established tumors with a size of about 40 mm^2 were treated with 0.3 mg/kg, 1 mg/kg and 3 mg/kg of antibodies (i.v., q4dx3: applications twice per week, three applications in total).
(§4) Animal studies were conducted as described in example 8 for further human colorectal cancer tumor cell lines Colo205 and LoVo and for further human colorectal cancer patient-derived models Co7553, Co5896, Co5676, Co5841, CXF 1103 and CXF 533. […] The formulation of regorafenib is described in example 8.

Experiment [6] concerns Colo205 xenograft (colorectal cancer). It counts as in vivo, mice. Particulars: tumor weight, TPP-2090 10 mg/kg twice weekly for 4 weeks. How it is done:
as §1, §3, §4

The subject of experiment [7] is LoVo xenograft (colorectal cancer). In kind it is in vivo, mice. The settings on record: tumor weight, TPP-2090 10 mg/kg twice weekly for 4 weeks. How it is done:
as §1, §3, §4

Turning to `Nc1ccn([C@@H]2O[C@H](CO)[C@@H](O)C2(F)F)c(=O)n1` [Gemcitabine, gemcitabine, reference compound], the figures for the T/C in experiment [1], in experiment [2] and in experiment [3] were 0.93, 0.85 and 0.07, respectively.
As to `N.N.[Cl][Pt][Cl]` [Oxaliplatin/Cisplatin, cisplatin, reference compound], the T/C in experiment [1] is 0.84; in experiment [2] it was 1.22; in experiment [4], 0.85.
Take `CNC(=O)c1cc(Oc2ccc(NC(=O)Nc3ccc(Cl)c(C(F)(F)F)c3)c(F)c2)ccn1` [Regorafenib]: the “Final T/C” value in experiment [5] is recorded as 0.67; in experiment [6], 0.42; in experiment [7], 0.63.

For the origin of these results see US20160237160A1, “ANTI-TWEAKR ANTIBODIES AND USES THEREOF” (BAYER PHARMA AKTIENGESELLSCHAFT, priority 2013, published 2016).
